Reference: PubChem BioAssay AID248 (DTP/NCI, 2004)
Several values for one entry are separate records, joined by “and”; a condition that tells them apart may be missing. Identical values can stand only once. Inconclusive results and toxic doses are left out. Numbered stars: 1 amine (or outer) side, 2 acyl side, 3 side chain; on linkers, the order of the positions; unused ones are H or OH. Bridge positions count the residues as written; N and C are the ends. Square brackets hold non-standard residues; d marks the D form. Peptide text beside a SMILES is read from it. I, II: the chains in the order shown. Actinocin(9to1) = Cc1c2oc3c(C)ccc(C(=O)[*:1])c3nc-2c(C(=O)[*:2])c(N)c1=O; NMeV = CN[CH](C(=O)O)C(C)C; Pip = O=C(O)[CH]1CCCCN1; Sar = CNCC(=O)O

System: L1210 leukemia ip in BDF1 mice, survival T/C
Experiment: NCI In Vivo Anticancer Drug Screen. Data for tumor model L1210 Leukemia (intraperitoneal) in B6D2F1 (BDF1) mice
Settings: endpoint: mean survival time, higher = longer survival
How it was run: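 Survival endpoint. Drug-treated group vs vehicle group, expressed as T divided by C. Tumor passaged by transplantation.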

[1] = dose: 100.0 mg/kg/injection, schedule: Q01DX001 (ip), vehicle: other
[2] = dose: 50.0 mg/kg/injection, schedule: Q01DX001 (ip), vehicle: saline
[3] = dose: 100.0 mg/kg/injection, schedule: Q01DX001 (ip), vehicle: saline
[4] = dose: 200.0 mg/kg/injection, schedule: Q01DX001 (ip), vehicle: saline
[5] = dose: 100.0 mg/kg/injection, schedule: Q04DX003 (ip), vehicle: Klucel (hydroxypropylcellulose) (HPC)
[6] = dose: 200.0 mg/kg/injection, schedule: Q04DX003 (ip), vehicle: Klucel (hydroxypropylcellulose) (HPC)
[7] = dose: 400.0 mg/kg/injection, schedule: Q04DX003 (ip), vehicle: Klucel (hydroxypropylcellulose) (HPC)
[8] = dose: 400.0 mg/kg/injection, schedule: Q01DX001 (ip), vehicle: saline
[9] = dose: 100.0 mg/kg/injection, schedule: Q04DX003 (ip), vehicle: saline with Tween-80
[10] = dose: 200.0 mg/kg/injection, schedule: Q04DX003 (ip), vehicle: saline with Tween-80
[11] = dose: 100.0 mg/kg/injection, schedule: Q01DX001 (ip), vehicle: Klucel (hydroxypropylcellulose) (HPC)
[12] = dose: 200.0 mg/kg/injection, schedule: Q01DX001 (ip), vehicle: Klucel (hydroxypropylcellulose) (HPC)
[13] = dose: 400.0 mg/kg/injection, schedule: Q01DX001 (ip), vehicle: Klucel (hydroxypropylcellulose) (HPC)
[14] = dose: 100.0 mg/kg/injection, schedule: Q01DX009 (ip), vehicle: Klucel (hydroxypropylcellulose) (HPC)
[15] = dose: 200.0 mg/kg/injection, schedule: Q01DX009 (ip), vehicle: Klucel (hydroxypropylcellulose) (HPC)
[16] = dose: 400.0 mg/kg/injection, schedule: Q01DX009 (ip), vehicle: Klucel (hydroxypropylcellulose) (HPC)

Cn1c(=O)c2c(nc(OCC3CCCCC3)n2C)n(C)c1=O
T/C (dose: 50.0 mg/kg/injection, schedule: Q01DX001 (ip), vehicle: other): 94 % of control
T/C [1]: 100 % of control
T/C (dose: 200.0 mg/kg/injection, schedule: Q01DX001 (ip), vehicle: other): 94 % of control
T/C (dose: 400.0 mg/kg/injection, schedule: Q01DX001 (ip), vehicle: other): 92 % of control

O=[N+]([O-])c1cc(C(F)(F)F)cc([N+](=O)[O-])c1NN=C1CCCCC1
T/C (dose: 100.0 mg/kg/injection, schedule: Q01DX009 (ip), vehicle: gum acacia): 93 % of control
T/C (dose: 200.0 mg/kg/injection, schedule: Q01DX009 (ip), vehicle: gum acacia): 91 % of control
T/C (dose: 400.0 mg/kg/injection, schedule: Q01DX009 (ip), vehicle: gum acacia): 96 % of control

Cc1cc(C)c(CCN(C)C)c(C)c1C
T/C [2]: 103 % of control
T/C [3]: 101 % of control
T/C [4]: 101 % of control

O=C1CCC(=S)N1c1ccccc1
T/C [5]: 101 % of control
T/C [6]: 100 % of control
T/C [7]: 95 % of control

COc1ccc(NC(=O)COc2cccc(Cl)c2)cc1S(=O)(=O)F
T/C (dose: 25.0 mg/kg/injection, schedule: Q04DX003 (ip), vehicle: gum acacia): 98 % of control
T/C (dose: 50.0 mg/kg/injection, schedule: Q04DX003 (ip), vehicle: gum acacia): 95 % of control
T/C (dose: 100.0 mg/kg/injection, schedule: Q04DX003 (ip), vehicle: gum acacia): 101 % of control
T/C (dose: 200.0 mg/kg/injection, schedule: Q04DX003 (ip), vehicle: gum acacia): 95 % of control
T/C (dose: 400.0 mg/kg/injection, schedule: Q04DX003 (ip), vehicle: gum acacia): 92 % of control

Cc1c2oc3c(C)ccc(C(=O)NC4C(=O)NC(C(C)C)C(=O)N5CCCCC5C(=O)N(C)CC(=O)N(C)C(C(C)C)C(=O)OC4C)c3nc-2c(C(=O)NC2C(=O)NC(C(C)C)C(=O)N3CCCCC3C(=O)N(C)CC(=O)N(C)C(C(C)C)C(=O)OC2C)c(N)c1=O (stereo unspecified) (I: TV[Pip][Sar][NMeV] / II: TV[Pip][Sar][NMeV]; ester I:1-I:C, II:1-II:C; linker I:N-II:N via Actinocin(9to1); configuration not given here)
T/C (dose: 0.5 mg/kg/injection, schedule: Q01DX001 (ip), vehicle: saline): 105 % of control
T/C (dose: 0.5 mg/kg/injection, schedule: Q01DX009 (ip), vehicle: water): 123 % of control
T/C (dose: 1.0 mg/kg/injection, schedule: Q01DX001 (ip), vehicle: saline): 102 % of control
T/C (dose: 1.0 mg/kg/injection, schedule: Q01DX009 (ip), vehicle: water): 104 % of control
T/C (dose: 1.8 mg/kg/injection, schedule: Q01DX001 (ip), vehicle: saline): 116 % of control
T/C (dose: 2.0 mg/kg/injection, schedule: Q01DX001 (ip), vehicle: saline): 112 % of control
T/C (dose: 2.6 mg/kg/injection, schedule: Q01DX001 (ip), vehicle: saline): 109 % of control
T/C (dose: 6.0 mg/kg/injection, schedule: Q01DX001 (ip), vehicle: saline): 103 % of control

O=C(Nc1cc(Cl)c(Cl)cc1NC(=O)C(Cl)(Cl)Cl)C(Cl)(Cl)Cl
T/C (dose: 5.0 mg/kg/injection, schedule: Q01DX001 (ip), vehicle: other): 97 % of control
T/C (dose: 10.0 mg/kg/injection, schedule: Q01DX001 (ip), vehicle: other): 100 % of control

O=C(Nc1ccc(NC(=O)Nc2ccc(C3=NCCCN3)cc2)cc1)Nc1ccc(C2=NCCCN2)cc1
T/C (dose: 8.3 mg/kg/injection, schedule: Q04DX003 (ip), vehicle: saline with Tween-80): 107 % of control
T/C (dose: 12.0 mg/kg/injection, schedule: Q04DX003 (ip), vehicle: saline with Tween-80): 121 % of control
T/C [3]: 124 % of control
T/C (dose: 200.0 mg/kg/injection, schedule: Q04DX003 (ip), vehicle: saline): 159 % of control
T/C (dose: 264.0 mg/kg/injection, schedule: Q01DX001 (ip), vehicle: saline): 208 % of control
T/C (dose: 400.0 mg/kg/injection, schedule: Q04DX003 (ip), vehicle: saline): 279 % of control

Cc1cccc(Cl)c1N=Nc1sc(N)nc1C
T/C (dose: 75.0 mg/kg/injection, schedule: Q01DX001 (ip), vehicle: saline): 105 % of control
T/C (dose: 150.0 mg/kg/injection, schedule: Q01DX001 (ip), vehicle: saline): 105 % of control

COc1ccccc1CCCO
T/C [2]: 97 % of control
T/C [3]: 105 % of control
T/C [4]: 100 % of control
T/C [8]: 105 % of control

O=C/C=C/c1cc([N+](=O)[O-])ccc1Cl
T/C (dose: 100.0 mg/kg/injection, schedule: Q04DX002 (ip), vehicle: Klucel (hydroxypropylcellulose) (HPC)): 100 % of control
T/C (dose: 200.0 mg/kg/injection, schedule: Q04DX002 (ip), vehicle: Klucel (hydroxypropylcellulose) (HPC)): 96 % of control
T/C (dose: 400.0 mg/kg/injection, schedule: Q04DX002 (ip), vehicle: Klucel (hydroxypropylcellulose) (HPC)): 100 % of control

CC1CCC2(CC1)OCC(CCl)O2 (stereo unspecified)
T/C (dose: 222.0 mg/kg/injection, schedule: Q01DX Z (ip), vehicle: saline): 107 % of control
T/C (dose: 333.0 mg/kg/injection, schedule: Q01DX Z (ip), vehicle: saline): 110 % of control
T/C (dose: 500.0 mg/kg/injection, schedule: Q01DX Z (ip), vehicle: saline): 113 % of control

Cc1cc(N(CCCl)CCCl)ccc1N=Nc1ccccc1C(=O)O
T/C (dose: 3.1 mg/kg/injection, schedule: Q01DX Z (ip), vehicle: carboxymethylcellulose (CMC)): 116 % of control
T/C (dose: 5.0 mg/kg/injection, schedule: Q01DX010 (ip), vehicle: saline): 110 % of control and 111 % of control
T/C (dose: 10.0 mg/kg/injection, schedule: Q01DX010 (ip), vehicle: saline): 119 % of control and 122 % of control
T/C (dose: 18.0 mg/kg/injection, schedule: Q01DX Z (ip), vehicle: carboxymethylcellulose (CMC)): 122 % of control
T/C (dose: 20.0 mg/kg/injection, schedule: Q01DX010 (ip), vehicle: saline): 121 % of control
T/C (dose: 25.0 mg/kg/injection, schedule: Q01DX Z (ip), vehicle: carboxymethylcellulose (CMC)): 107 % of control
T/C (dose: 27.0 mg/kg/injection, schedule: Q01DX Z (ip), vehicle: carboxymethylcellulose (CMC)): 114 % of control
T/C (dose: 40.0 mg/kg/injection, schedule: Q01DX010 (ip), vehicle: saline): 88 % of control
T/C (dose: 40.0 mg/kg/injection, schedule: Q01DX Z (ip), vehicle: carboxymethylcellulose (CMC)): 86 % of control

CSCCCNC(=O)c1csc(CCNC(=O)c2ccccc2)n1
T/C [9]: 100 % of control
T/C [10]: 100 % of control
T/C (dose: 400.0 mg/kg/injection, schedule: Q04DX003 (ip), vehicle: saline with Tween-80): 91 % of control

CC(=O)N/N=C/c1ccc2c(c1)CCC2
T/C [9]: 97 % of control
T/C [10]: 103 % of control

CC(=O)OCCC/C(=C\c1cccc([N+](=O)[O-])c1)[N+](=O)[O-]
T/C [1]: 111 % of control

O=C(O)/C=C\C=C\c1ccccc1
T/C [3]: 89 % of control
T/C [4]: 94 % of control
T/C [8]: 96 % of control

O=C(c1ccccc1)N1CC1(c1ccccc1)C1(c2ccccc2)SCCCS1 (stereo unspecified)
T/C [11]: 95 % of control
T/C [12]: 98 % of control
T/C [13]: 92 % of control

COc1cc(/C=N\N=C(/C)c2ccc(F)cc2)cc(OC)c1OC
T/C [14]: 87 % of control
T/C [15]: 86 % of control
T/C [16]: 89 % of control

CCN(CC)C(=S)SSC(=S)N(CC)CC
T/C (dose: 25.0 mg/kg/injection, schedule: Q01DX009 (ip), vehicle: Klucel (hydroxypropylcellulose) (HPC)): 100 % of control
T/C (dose: 25.0 mg/kg/injection, schedule: Q04DX003 (ip), vehicle: Klucel (hydroxypropylcellulose) (HPC)): 93 % of control
T/C (dose: 50.0 mg/kg/injection, schedule: Q01DX009 (ip), vehicle: Klucel (hydroxypropylcellulose) (HPC)): 100 % of control
T/C (dose: 50.0 mg/kg/injection, schedule: Q04DX003 (ip), vehicle: Klucel (hydroxypropylcellulose) (HPC)): 93 % of control
T/C [14]: 91 % of control
T/C [5]: 96 % of control and 98 % of control
T/C [15]: 98 % of control and 101 % of control
T/C [6]: 88 % of control and 91 % of control
T/C [16]: 96 % of control and 100 % of control
T/C [7]: 93 % of control and 96 % of control

COc1cc([N+](=O)[O-])c(Cl)cc1NS(=O)(=O)c1ccc(C)cc1
T/C [11]: 98 % of control
T/C [12]: 95 % of control
T/C [13]: 90 % of control

C(=N\N(c1ccccc1)c1ccccc1)/c1ccc(/C=N/N(c2ccccc2)c2ccccc2)cc1
T/C [14]: 92 % of control
T/C [15]: 90 % of control
T/C [16]: 96 % of control
